Earlier results as cited in publication PMC3470887, “Protegrin-1 Inhibits Dengue NS2B-NS3 Serine Protease and Viral Replication in MK2 Cells” (Journal of Biomedicine and Biotechnology, 2012).

Settings: mouse, iv; cited from earlier work

CC(C)C[C@H](NC(=O)[C@H](CCCNC(=N)N)NC(=O)CNC(=O)CNC(=O)[C@@H](N)CCCNC(=N)N)C(=O)N[C@H]1CSSC[C@@H](C(=O)N[C@H](C(=O)NCC(=O)N[C@@H](CCCNC(=N)N)C(N)=O)C(C)C)NC(=O)[C@H](C(C)C)NC(=O)[C@@H]2CSSC[C@H](NC(=O)[C@H](Cc3ccc(O)cc3)NC1=O)C(=O)N[C@@H](CCCNC(=N)N)C(=O)N[C@@H](CCCNC(=N)N)C(=O)N[C@@H](CCCNC(=N)N)C(=O)N[C@@H](Cc1ccccc1)C(=O)N2 [PG-1]
dose with low in vivo toxicity: up to 8 mg/kg
